Source: patent EP3572411A1, “THIAZOLE DERIVATIVES AS METALLO-BETA-LACTAMASE INHIBITORS” (Antabio SAS, priority 2018, dated 2019)
Like-named read-outs stand apart in the source and are kept apart here.

Key:
Assay in all cases: In vitro enzyme inhibition assay (imipenem hydrolysis, UV 299 nm)
Assay type in all cases: biochemical
IMP-1 = target: T1, IMP-1 (Serratia marcescens, UniProt P52699)
T1 construct: VIM-1; VIM-2
Experimental: (§1) In vitro enzyme inhibition assays: Enzyme inhibition assays are performed using purified MBL enzymes (NDM-1; VIM-1; VIM-2; IMP-1) in 10mM HEPES buffer pH 7.5 in 96-well microtiter plates. Imipenem (300µM) is used as substrates and its hydrolysis is followed at UV 299 nm during 10mn every 30 seconds using a Perkin Elmer Envision UV fluorescence plate reader. Hydrolysis rate data in presence of a range of inhibitors are analysed using Dotmatics database software and calculated IC50 values are converted to Ki values using the Cheng-Prusoff equation. Ki = IC50 / (1+([S]/Km) and where the Km values for […] are 70 µM, 1.5 µM, 9 µM and 25 µM respectively. Compound dilution is performed in DMSO. Mean Ki values from multiple experiments are presented. Results are shown in Table 1.

NDM-1 = target: T2, NDM-1 (Klebsiella pneumoniae, UniProt C7C422)
T2 construct: VIM-1; VIM-2
T2 sequence (C7C422 29-270, looked up): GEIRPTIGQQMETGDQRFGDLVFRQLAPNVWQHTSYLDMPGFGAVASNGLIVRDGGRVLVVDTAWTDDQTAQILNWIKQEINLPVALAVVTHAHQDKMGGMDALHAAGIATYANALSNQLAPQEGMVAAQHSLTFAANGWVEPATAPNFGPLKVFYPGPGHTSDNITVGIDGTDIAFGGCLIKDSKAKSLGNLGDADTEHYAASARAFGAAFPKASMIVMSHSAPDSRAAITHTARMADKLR
Experimental: as §1

VIM-1 = target: T3, VIM-1 (Pseudomonas aeruginosa, UniProt A0A0F7KYQ8)
T3 construct: VIM-1; VIM-2; IMP-1)
Experimental: as §1

VIM-2 = target: T4, VIM-2 (Escherichia coli, UniProt Q5U7L7); conditions: read-out: Ki (µM) VIM-2; purified enzyme, 10mM HEPES pH 7.5, Imipenem 300µM; mean Ki from IC50 by Cheng-Prusoff
T4 construct: VIM-1; VIM-2
Experimental: as §1

[1] = read-out: Ki (µM) IMP-1; purified enzyme, 10mM HEPES pH 7.5, Imipenem 300µM; mean Ki from IC50 by Cheng-Prusoff
[2] = read-out: Ki (µM) NDM-1; purified enzyme, 10mM HEPES pH 7.5, Imipenem 300µM; mean Ki from IC50 by Cheng-Prusoff
[3] = read-out: Ki (µM) VIM-1; purified enzyme, 10mM HEPES pH 7.5, Imipenem 300µM; mean Ki from IC50 by Cheng-Prusoff

T1 sequence (P52699 19-246, looked up, species assumed): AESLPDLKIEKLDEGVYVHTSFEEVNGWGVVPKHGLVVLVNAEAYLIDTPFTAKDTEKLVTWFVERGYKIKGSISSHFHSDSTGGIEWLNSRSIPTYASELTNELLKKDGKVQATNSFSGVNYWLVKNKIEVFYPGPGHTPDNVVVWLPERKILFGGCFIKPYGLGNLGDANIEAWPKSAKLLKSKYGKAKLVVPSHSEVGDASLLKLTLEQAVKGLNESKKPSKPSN

Ki (IMP-1; purified enzyme, 10mM HEPES pH 7.5, Imipenem 300µM; mean Ki from IC50 by Cheng-Prusoff; read-out: Ki (µM) IMP-1)	Ki (NDM-1; purified enzyme, 10mM HEPES pH 7.5, Imipenem 300µM; mean Ki from IC50 by Cheng-Prusoff; read-out: Ki (µM) NDM-1)	Ki (VIM-1; purified enzyme, 10mM HEPES pH 7.5, Imipenem 300µM; mean Ki from IC50 by Cheng-Prusoff; read-out: Ki (µM) VIM-1)	Compound	Ki (IMP-1; [1])	Ki (NDM-1; [2])	Ki (VIM-1; [3])	Ki (VIM-2)
			C[n+]1ccn(CC(=O)Nc2ccc(S(=O)(=O)Nc3scnc3C(=O)[O-])cc2F)c1 [Example 1, 1-[({4-[(4-carboxy-1,3-thiazol-5-yl)sulfamoyl]-2-fluorophenyl}carbamoyl)methyl]-3-methyl-1H-imidazol-3-ium]	1 to 8 µM	< 0.05 µM	0.2 to 0.5 µM	0.05 to 0.2 µM
			Cc1n(CC(=O)Nc2ccc(S(=O)(=O)Nc3scnc3C(=O)[O-])cc2F)cc[n+]1C [Example 2, 1-[({4-[(4-carboxy-1,3-thiazol-5-yl)sulfamoyl]-2-fluorophenyl}carbamoyl)methyl]-2,3-dimethyl-1H-imidazol-3-ium]	1 to 8 µM	0.05 to 0.2 µM	0.2 to 0.5 µM	0.05 to 0.2 µM
			C[n+]1ccn(CC(=O)Nc2ccc(S(=O)(=O)Nc3scnc3C(=O)[O-])cc2F)c1N [Example 3, 2-amino-1-[({4-[(4-carboxy-1,3-thiazol-5-yl)sulfamoyl]-2-fluorophenyl}carbamoyl)methyl]-3-methyl-1H-imidazol-3-ium]	1 to 8 µM	0.05 to 0.2 µM	0.2 to 0.5 µM	0.05 to 0.2 µM
1 to 8 µM	0.05 to 0.2 µM	0.2 to 0.5 µM	CSc1n(CC(=O)Nc2ccc(S(=O)(=O)Nc3scnc3C(=O)[O-])cc2F)cc[n+]1C [Example 4]				
			O=C(Cn1cc[n+]2c1COCC2)Nc1ccc(S(=O)(=O)Nc2scnc2C(=O)[O-])cc1F [Example 5, 1-[({4-[(4-carboxy-1,3-thiazol-5-yl)sulfamoyl]-2-fluorophenyl}carbamoyl)methyl]-1H,5H,6H,8H-4lambda5-imidazo[2,1-c][1,4]oxazin-4-ylium]	1 to 8 µM	0.05 to 0.2 µM	0.5 to 0.8 µM	0.05 to 0.2 µM
			Cc1c[n+](C)cn1CC(=O)Nc1ccc(S(=O)(=O)Nc2scnc2C(=O)[O-])cc1F [Example 6, 1-[({4-[(4-carboxy-1,3-thiazol-5-yl)sulfamoyl]-2-fluorophenyl}carbamoyl)methyl]-3,5-dimethyl-1H-imidazol-3-ium]	1 to 8 µM	0.2 to 0.4 µM	0.5 to 0.8 µM	0.05 to 0.2 µM
			Cc1cn(CC(=O)Nc2ccc(S(=O)(=O)Nc3scnc3C(=O)[O-])cc2F)c[n+]1C [Example 7, 1-[({4-[(4-carboxy-1,3-thiazol-5-yl)sulfamoyl]-2-fluorophenyl}carbamoyl)methyl]-3,4-dimethyl-1H-imidazol-3-ium]	1 to 8 µM	0.2 to 0.4 µM	< 0.2 µM	0.02 to 0.05 µM
			C[n+]1c(N)ccn1CC(=O)Nc1ccc(S(=O)(=O)Nc2scnc2C(=O)[O-])cc1F [Example 8, 3-amino-1-[({4-[(4-carboxy-1,3-thiazol-5-yl)sulfamoyl]-2-fluorophenyl}carbamoyl)methyl]-2-methyl-1H-pyrazol-2-ium]	1 to 8 µM	0.05 to 0.2 µM	0.2 to 0.5 µM	
			C[n+]1ccn(CC(=O)Nc2ccc(S(=O)(=O)Nc3scnc3C(=O)[O-])cc2F)n1 [Example 9, 1-[({4-[(4-carboxy-1,3-thiazol-5-yl)sulfamoyl]-2-fluorophenyl}carbamoyl)methyl]-3-methyl-1H-1,2,3-triazol-3-ium]	1 to 8 µM	< 0.05 µM	0.2 to 0.5 µM	0.05 to 0.2 µM
			C[n+]1cccn1CC(=O)Nc1ccc(S(=O)(=O)Nc2scnc2C(=O)[O-])cc1F [Example 10, 1-[({4-[(4-carboxy-1,3-thiazol-5-yl)sulfamoyl]-2-fluorophenyl}carbamoyl)methyl]-2-methyl-1H-pyrazol-2-ium]	1 to 8 µM	0.05 to 0.2 µM	0.2 to 0.5 µM	
			NCC[n+]1ccn(CC(=O)Nc2ccc(S(=O)(=O)Nc3scnc3C(=O)[O-])cc2F)c1 [Example 11, 3-(2-aminoethyl)-1-[({4-[(4-carboxy-1,3-thiazol-5-yl)sulfamoyl]-2-fluorophenyl}carbamoyl)methyl]-1H-imidazol-3-ium]	1 to 8 µM	< 0.05 µM	< 0.2 µM	0.02 to 0.05 µM
			N=C(N)NCC[n+]1ccn(CC(=O)Nc2ccc(S(=O)(=O)Nc3scnc3C(=O)[O-])cc2F)c1 [Example 12, 3-(2-carbamimidamidoethyl)-1-[({4-[(4-carboxy-1,3-thiazol-5-yl)sulfamoyl]-2-fluorophenyl}carbamoyl)methyl]-1H-imidazol-3-ium]	1 to 8 µM	< 0.05 µM	< 0.2 µM	0.05 to 0.2 µM
			C[n+]1ccn(CC(=O)Nc2c(F)cc(S(=O)(=O)Nc3scnc3C(=O)[O-])cc2F)c1 [Example 13, 1-[({4-[(4-carboxy-1,3-thiazol-5-yl)sulfamoyl]-2,6-difluorophenyl}carbamoyl)methyl]-3-methyl-1H-imidazol-3-ium]	1 to 8 µM	0.05 to 0.2 µM	0.5 to 0.8 µM	0.05 to 0.2 µM
			NCC[n+]1ccn(CC(=O)Nc2c(F)cc(S(=O)(=O)Nc3scnc3C(=O)[O-])cc2F)c1 [Example 14, 3-(2-aminoethyl)-1-[({4-[(4-carboxy-1,3-thiazol-5-yl)sulfamoyl]-2,6-difluorophenyl}carbamoyl)methyl]-1H-imidazol-3-ium]	1 to 8 µM	< 0.05 µM	< 0.2 µM	0.02 to 0.05 µM
			N=C(N)NCC[n+]1ccn(CC(=O)Nc2c(F)cc(S(=O)(=O)Nc3scnc3C(=O)[O-])cc2F)c1 [Example 15, 1-(2-carbamimidamidoethyl)-3-[({4-[(4-carboxy-1,3-thiazol-5-yl)sulfamoyl]-2,6-difluorophenyl}carbamoyl)methyl]imidazol-1-ium]	1 to 8 µM	< 0.05 µM	< 0.2 µM	0.02 to 0.05 µM
			NCCC[n+]1ccn(CC(=O)Nc2ccc(S(=O)(=O)Nc3scnc3C(=O)[O-])cc2F)c1 [Example 16, 3-(3-aminopropyl)-1-[({4-[(4-carboxy-1,3-thiazol-5-yl)sulfamoyl]-2-fluorophenyl}carbamoyl)methyl]-1H-imidazol-3-ium]	1 to 8 µM	< 0.05 µM	< 0.2 µM	< 0.02 µM
			N#Cc1cc(S(=O)(=O)Nc2scnc2C(=O)[O-])ccc1NC(=O)Cn1cc[n+](CCN)c1 [Example 18, 3-(2-aminoethyl)-1-[({4-[(4-carboxy-1,3-thiazol-5-yl)sulfamoyl]-2-cyanophenyl}carbamoyl)methyl]-1H-imidazol-3-ium]	0.5 to 1 µM	0.05 to 0.2 µM	< 0.2 µM	< 0.02 µM
			N#Cc1cc(S(=O)(=O)Nc2scnc2C(=O)[O-])ccc1NC(=O)Cn1cc[n+](CCNC(=N)N)c1 [Example 19, 3-(2-carbamimidamidoethyl)-1-[({4-[(4-carboxy-1,3-thiazol-5-yl)sulfamoyl]-2-cyanophenyl}carbamoyl)methyl]-1H-imidazol-3-ium]	1 to 8 µM	0.2 to 0.4 µM	< 0.2 µM	0.02 to 0.05 µM
			CN(C)CC[n+]1ccn(CC(=O)Nc2ccc(S(=O)(=O)Nc3scnc3C(=O)[O-])cc2F)c1 [Example 20, 3-[({4-[(4-carboxy-1,3-thiazol-5-yl)sulfamoyl]-2-fluorophenyl}carbamoyl)methyl]-1-[2-(dimethylamino)ethyl]imidazol-1-ium]	1 to 8 µM	< 0.05 µM	< 0.2 µM	0.05 to 0.2 µM
			C[n+]1cn(CC(=O)Nc2ccc(S(=O)(=O)Nc3scnc3C(=O)[O-])cc2F)cn1 [Example 22, 4-[({4-[(4-carboxy-1,3-thiazol-5-yl)sulfamoyl]-2-fluorophenyl}carbamoyl)methyl]-1-methyl-1,2,4-triazol-1-ium]	0.5 to 1 µM	0.05 to 0.2 µM	0.2 to 0.5 µM	0.05 to 0.2 µM
